One substance from patent publication US9057727B2, “Screening methods using G-protein coupled receptors and related compositions” (The General Hospital Corporation, priority 2007, dated 2015) can be followed below.

The subject of one assay is NaPi-IIc. The assay is described as follows: NaPi-IIc immunostaining in renal PT cells of injected mice. The format is in vivo. Particulars: interval 4 to 6 h. From the text:
(§1) To impair PLC signaling, we replaced alanine at position 1 of M-PTH(1-28) with tryptophan, in accordance with findings of Bisello and colleagues (J Biol Chem 277:38524-30, 2002) showing that such bulky substitutions at this position selectively impair PLC signaling.

The target in assay [1] is T1, rat PTHR (Rattus norvegicus, UniProt P25961).
T1 sequence (P25961 27-591): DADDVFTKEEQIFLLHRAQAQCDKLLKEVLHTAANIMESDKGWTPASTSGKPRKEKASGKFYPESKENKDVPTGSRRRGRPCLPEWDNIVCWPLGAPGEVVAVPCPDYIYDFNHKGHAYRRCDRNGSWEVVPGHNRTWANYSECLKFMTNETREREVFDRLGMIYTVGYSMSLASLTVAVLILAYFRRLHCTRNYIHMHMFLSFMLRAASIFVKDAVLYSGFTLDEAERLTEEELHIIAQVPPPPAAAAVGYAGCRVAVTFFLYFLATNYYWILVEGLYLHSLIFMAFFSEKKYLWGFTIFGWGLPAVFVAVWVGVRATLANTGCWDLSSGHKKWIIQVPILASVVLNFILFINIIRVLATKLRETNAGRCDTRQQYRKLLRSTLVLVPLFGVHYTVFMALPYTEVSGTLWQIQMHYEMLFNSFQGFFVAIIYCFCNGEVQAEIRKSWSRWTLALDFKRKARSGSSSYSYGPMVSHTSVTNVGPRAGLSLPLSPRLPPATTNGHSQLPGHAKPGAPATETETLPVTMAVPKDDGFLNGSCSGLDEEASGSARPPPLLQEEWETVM
The assay can be described thus: cAMP formation in HEK-293 cells transfected with rat PTHR. The format is cell-based. Particulars: versus M-PTH(1-28).
Excerpt: as §1
For orientation: Changes in cAMP serve as a functional read-out for many G protein-coupled receptors.

For another assay, the system named is MC3T3-E1 cells. The assay is described as follows: Prolonged cAMP response after ligand wash-out in MC3T3-E1 cells. In kind it is cell-based.
Excerpt: as §1

The subject of the next assay is NaPi-IIa. The assay is described as follows: NaPi-IIa staining in renal PT cells of injected mice. The settings on record: mouse, in vivo.
Excerpt: To help elucidate further the signaling mechanisms by which PTH ligands regulate renal phosphate transport, we developed a derivative of M-PTH(1-28) that is defective for PLC/PKC signaling, yet retains potent cAMP/PKA signaling activity. Such a peptide allows for study of the relative roles of the PKA and PKC signaling pathways in modulating the function and surface expression of the Pi transporters NaPi-IIa and NaPi-IIc in proximal tubule (PT) cells. The analog M-PTH(1-28) (M=Ala^1,Aib^3,Gln^10, Har^11,Trp^14,Arg^19), a potent agonist for cAMP and IP3 signaling pathways, induces, when injected into mice, prolonged hypophosphatemic and hypercalcemic effects.
as §1

A short description of assay [2]: Plasma phosphate in mice (20 nmol/kg). The format is in vivo.
Excerpt: as §1

Assay [3] concerns LLC-PK1 cells expressing NaPi-IIc transporter and the rat PTHR. The assay can be described thus: 32P uptake in LLC-PK1 cells expressing NaPi-IIc transporter and rat PTHR. In kind it is cell-based.
Excerpt: as §1

Assay [4] addresses T1, rat PTHR. The assay is described as follows: IP3 formation in HEK-293 cells transfected with rat PTHR. In kind it is cell-based. The settings on record: versus M-PTH(1-28).
Excerpt: as §1

Trp^1-M-PTH(1-28): the “NaPi-IIc immunostaining, in words” value in the assay on NaPi-IIc is recorded as “unchanged”. Further, in the assay with rat PTHR [1], the “potency for stimulating cAMP formation, in words” value was “about as potent as M-PTH(1-28)”. Moreover, in the assay with MC3T3-E1 cells, the “cAMP response after ligand wash-out, in words” value is reported as “retained the capacity to produce a prolonged cAMP response”. For the same substance, the “apical and cytoplasmic NaPi-IIa staining, in words” value with NaPi-IIa is on record as “remained reduced for at least six hours”. For the same substance, in assay [2], the “time of maximal suppression of plasma phosphate” value turned out to be 2 h and the “time of recovery of plasma phosphate to vehicle control levels” value turned out to be 6 h. For the same substance, the “^32P uptake, in words” value in assay [3] was “failed to inhibit”. Moreover, in the assay with rat PTHR [4], the “fold less potent than parent peptide for stimulating IP3 formation” value is recorded as “at least 100 fold”.
